Reference: article PMC12028158, “Synthesis and In Vitro Evaluation of the Anticancer Effect of Novel Phosphonium Vindoline Derivatives” (International Journal of Molecular Sciences, 2025)

What was measured:
Assay type in all cases: cell-based
U251 = experiment: NCI60 one-dose screen; conditions: Homo sapiens, U-251, read-out: Growth percent
NCI-H460 [1] = experiment: NCI60 one-dose screen; conditions: Homo sapiens, NCI-H460, read-out: Growth percent
SF-268 = experiment: NCI60 one-dose screen; conditions: Homo sapiens, SF-268, read-out: Growth percent
HOP-62 = experiment: NCI60 one-dose screen; conditions: Homo sapiens, HOP-62, read-out: Growth percent
SW-620 = experiment: NCI60 one-dose screen; conditions: Homo sapiens, SW-620, read-out: Growth percent
SK-MEL-5 = experiment: NCI60 one-dose screen; conditions: Homo sapiens, SK-MEL-5, read-out: Growth percent
LOX IMVI = experiment: NCI60 one-dose screen; conditions: Homo sapiens, read-out: Growth percent
MDA-MB-435 = experiment: NCI60 one-dose screen; conditions: Homo sapiens, MDA-MB-435, read-out: Growth percent
KM12 [2] = experiment: NCI60 one-dose screen; conditions: Homo sapiens, KM12, read-out: Growth percent
HT29 = experiment: NCI60 one-dose screen; conditions: Homo sapiens, HT-29, read-out: Growth percent
SN12C = experiment: NCI60 one-dose screen; conditions: Homo sapiens, read-out: Growth percent
MCF7 [3] = experiment: NCI60 one-dose screen; conditions: Homo sapiens, MCF7, read-out: Growth percent
NCI-H226 = experiment: NCI60 one-dose screen; conditions: Homo sapiens, NCI-H226, read-out: Growth percent
MALME-3M = experiment: NCI60 one-dose screen; conditions: Homo sapiens, Malme-3M, read-out: Growth percent
RPMI-8226 [4] = experiment: NCI60 one-dose screen; conditions: Homo sapiens, RPMI-8226, read-out: Growth percent
SK-MEL-2 = experiment: NCI60 one-dose screen; conditions: Homo sapiens, SK-MEL-2, read-out: Growth percent
SF-539 [5] = experiment: NCI60 one-dose screen; conditions: Homo sapiens, SF-539, read-out: Growth percent
SNB-19 [6] = experiment: NCI60 one-dose screen; conditions: Homo sapiens, SNB-19, read-out: Growth percent
UO-31 = experiment: NCI60 one-dose screen; conditions: Homo sapiens, UO-31, read-out: Growth percent
SNB-19 [7] = experiment: NCI60 five-dose screen; conditions: Homo sapiens, SNB-19
SF-539 [8] = experiment: NCI60 five-dose screen; conditions: Homo sapiens, SF-539
786-0 = experiment: NCI60 five-dose screen; conditions: Homo sapiens, 786-0
SR = experiment: NCI60 one-dose screen; conditions: Homo sapiens, read-out: Growth percent
Melanoma panel = experiment: NCI60 five-dose screen, panel mean; conditions: Homo sapiens, read-out: GI50 Mean
COLO 205 = experiment: NCI60 one-dose screen; conditions: Homo sapiens, COLO 205, read-out: Growth percent
Prostate Cancer panel = experiment: NCI60 five-dose screen, panel mean; conditions: Homo sapiens, read-out: GI50 Mean
A498 = experiment: NCI60 five-dose screen; conditions: Homo sapiens, A498
RPMI-8226 [9] = experiment: NCI60 five-dose screen; conditions: Homo sapiens, RPMI-8226
MDA-MB-468 = experiment: NCI60 five-dose screen; conditions: Homo sapiens, MDA-MB-468
KM12 [10] = experiment: NCI60 five-dose screen; conditions: Homo sapiens, KM12
SF-295 = experiment: NCI60 five-dose screen; conditions: Homo sapiens, SF-295
RXF 393 = experiment: NCI60 five-dose screen; conditions: Homo sapiens, RXF 393
MCF7 [11] = experiment: NCI60 five-dose screen; conditions: Homo sapiens, MCF7
SK-MEL-28 = experiment: NCI60 five-dose screen; conditions: Homo sapiens, SK-MEL-28
DU-145 = experiment: NCI60 five-dose screen; conditions: Homo sapiens, DU-145
NCI-H23 = experiment: NCI60 five-dose screen; conditions: Homo sapiens, NCI-H23
OVCAR-3 = experiment: NCI60 five-dose screen; conditions: Homo sapiens, OVCAR-3
PC-3 = experiment: NCI60 five-dose screen; conditions: Homo sapiens, PC-3
NCI-H460 [12] = experiment: NCI60 five-dose screen; conditions: Homo sapiens, NCI-H460
HOP-92 = experiment: NCI60 five-dose screen; conditions: Homo sapiens, HOP-92
TK-10 = experiment: NCI60 five-dose screen; conditions: Homo sapiens, TK-10
EKVX = experiment: NCI60 five-dose screen; conditions: Homo sapiens
[13] = test system: Non-small Cell Lung Cancer panel; experiment: NCI60 five-dose screen, panel mean; conditions: Homo sapiens, read-out: GI50 Mean
OVCAR-8 = experiment: NCI60 five-dose screen; conditions: Homo sapiens, OVCAR-8
UACC-257 = experiment: NCI60 five-dose screen; conditions: Homo sapiens, UACC-257

## CCC12C=CCN3CC[C@@]4(c5ccc(OC)cc5N(C)[C@H]4[C@@](O)(C(=O)OC)[C@@H]1OC(C)=O)[C@@H]32 (stereo partly shown) [compound 2, vindoline]
U251
  activity at 10 µM: 99.4%
NCI-H460 [1]
  activity at 10 µM: 104%
SF-268
  activity at 10 µM: 100%
HOP-62
  activity at 10 µM: 92.2%
SW-620
  activity at 10 µM: 104%
SK-MEL-5
  activity at 10 µM: 102%
LOX IMVI
  activity at 10 µM: 99.4%
MDA-MB-435
  activity at 10 µM: 105%
KM12 [2]
  activity at 10 µM: 102%
HT29
  activity at 10 µM: 98.5%
SN12C
  activity at 10 µM: 96.1%
MCF7 [3]
  activity at 10 µM: 99%
NCI-H226
  activity at 10 µM: 104%
MALME-3M
  activity at 10 µM: 98%
RPMI-8226 [4]
  activity at 10 µM: 101%
SK-MEL-2
  activity at 10 µM: 107%
SF-539 [5]
  activity at 10 µM: 104%
SNB-19 [6]
  activity at 10 µM: 96.6%
UO-31
  activity at 10 µM: 83.9%

## CC[C@]12C=CCN3CC[C@@]4(c5ccc(OC)cc5N(C)[C@H]4[C@@](O)(C(=O)OC)[C@@H]1OC(=O)CCCC[P+](c1ccccc1)(c1ccccc1)c1ccccc1)[C@@H]32 [compound 4, reference compound]
SNB-19 [7]
  GI50: 397 nM
SF-539 [8]
  GI50: 1300 nM
786-0
  GI50: 2900 nM
U251
  activity at 10 µM: 10.9%
NCI-H460 [1]
  activity at 10 µM: 18.4%
SF-268
  activity at 10 µM: 26.2%
HOP-62
  activity at 10 µM: 26.4%
SR
  activity at 10 µM: 17.9%
Melanoma panel
  GI50: 750 nM
SW-620
  activity at 10 µM: 29.4%
COLO 205
  activity at 10 µM: -93.7%
SK-MEL-5
  activity at 10 µM: -72.9%
LOX IMVI
  activity at 10 µM: 18.5%
Prostate Cancer panel
  GI50: 570 nM
A498
  GI50: 2840 nM
RPMI-8226 [9]
  GI50: 497 nM
MDA-MB-468
  GI50: 170 nM
KM12 [10]
  GI50: 442 nM
SF-295
  GI50: 2750 nM
MDA-MB-435
  activity at 10 µM: -19.7%
RXF 393
  GI50: 308 nM
KM12 [2]
  activity at 10 µM: 3.15%
MCF7 [11]
  GI50: 322 nM
HT29
  activity at 10 µM: 2.65%
SN12C
  activity at 10 µM: 4.56%
SK-MEL-28
  GI50: 532 nM
MCF7 [3]
  activity at 10 µM: 4.69%
DU-145
  GI50: 763 nM
NCI-H23
  GI50: 1220 nM
OVCAR-3
  GI50: 398 nM
PC-3
  GI50: 369 nM
NCI-H460 [12]
  GI50: 2110 nM
NCI-H226
  activity at 10 µM: 15.1%
HOP-92
  GI50: 268 nM
MALME-3M
  activity at 10 µM: -35.8%
RPMI-8226 [4]
  activity at 10 µM: 15.4%
SK-MEL-2
  activity at 10 µM: -41.6%
TK-10
  GI50: 2820 nM
EKVX
  GI50: 586 nM
SF-539 [5]
  activity at 10 µM: 19%
[13]
  GI50: 1440 nM
SNB-19 [6]
  activity at 10 µM: 12.7%
UO-31
  activity at 10 µM: 81.9%
OVCAR-8
  GI50: 1740 nM
UACC-257
  GI50: 215 nM
